The target in this experiment is T1, ΔF508-CFTR (Homo sapiens, UniProt P13569, DEL508-508).
T1 construct: expressed in transfected cells
As to the kind of experiment: Membrane potential optical (FRET/VIPR) assay, identification of potentiator compounds. The class given is cell-based. To be noted: Table 3, assay not given; for % Activity: relative efficacy. The text has this:
I) Membrane Potential Optical Methods for Assaying ΔF508-CFTR Modulation Properties of Compounds The optical membrane potential assay utilized voltage-sensitive FRET sensors described by Gonzalez and Tsien (See, Gonzalez, J. E. and R. Y. Tsien (1995) “Voltage sensing by fluorescence resonance energy transfer in single cells” Biophys J 69(4): 1272-80, and Gonzalez, J. E. and R. Y. Tsien (1997) “Improved indicators of cell membrane potential that use fluorescence resonance energy transfer” Chem Biol 4(4): 269-77) in combination with instrumentation for measuring fluorescence changes such as the Voltage/Ion Probe Reader (VIPR) (See, […]. Oades, et al. (1999) “Cell-based assays and instrumentation for screening ion-channel targets” Drug Discov Today 4(9): 431-439). These voltage sensitive assays are based on the change in fluorescence resonant energy transfer (FRET) between the membrane-soluble, voltage-sensitive dye, DiSBAC2(3), and a fluorescent phospholipid, CC2-DMPE, which is attached to the outer leaflet of the plasma membrane and acts as a FRET donor. Changes in membrane potential (Vm) cause the negatively charged DiSBAC2(3) to redistribute across the plasma membrane and the amount of energy transfer from CC2-DMPE changes accordingly. The changes in fluorescence emission were monitored using VIPR which is an integrated liquid handler and fluorescent detector designed to conduct cell-based screens in 96- or 384-well microtiter plates. To identify potentiators of ΔF508-CFTR, a double-addition HTS assay format was developed. During the first addition, a Cl^--free medium with or without test compound was added to each well. […] (in mM) NaCl 160, KCl 4.5, CaCl2 2, MgCl2 1, HEPES 10, pH 7.4 with NaOH. • Chloride-free bath solution: Chloride salts in Bath Solution #1 are substituted with gluconate salts. • CC2-DMPE: Prepared as a 10 mM stock solution in DMSO and stored at -20° C. • DiSBAC2(3): Prepared as a 10 mM stock in DMSO and stored at -20° C. NIH3T3 mouse fibroblasts stably expressing ΔF508-CFTR are used for optical measurements of membrane potential. […] For all optical assays, the cells were seeded at 30,000/well in 384-well matrigel-coated plates and cultured for 2 hrs at 37° C. before culturing at 27° C. for 24 hrs. for the potentiator assay.

T1 sequence (P13569 with tags, fused parts or gaps DEL508-508): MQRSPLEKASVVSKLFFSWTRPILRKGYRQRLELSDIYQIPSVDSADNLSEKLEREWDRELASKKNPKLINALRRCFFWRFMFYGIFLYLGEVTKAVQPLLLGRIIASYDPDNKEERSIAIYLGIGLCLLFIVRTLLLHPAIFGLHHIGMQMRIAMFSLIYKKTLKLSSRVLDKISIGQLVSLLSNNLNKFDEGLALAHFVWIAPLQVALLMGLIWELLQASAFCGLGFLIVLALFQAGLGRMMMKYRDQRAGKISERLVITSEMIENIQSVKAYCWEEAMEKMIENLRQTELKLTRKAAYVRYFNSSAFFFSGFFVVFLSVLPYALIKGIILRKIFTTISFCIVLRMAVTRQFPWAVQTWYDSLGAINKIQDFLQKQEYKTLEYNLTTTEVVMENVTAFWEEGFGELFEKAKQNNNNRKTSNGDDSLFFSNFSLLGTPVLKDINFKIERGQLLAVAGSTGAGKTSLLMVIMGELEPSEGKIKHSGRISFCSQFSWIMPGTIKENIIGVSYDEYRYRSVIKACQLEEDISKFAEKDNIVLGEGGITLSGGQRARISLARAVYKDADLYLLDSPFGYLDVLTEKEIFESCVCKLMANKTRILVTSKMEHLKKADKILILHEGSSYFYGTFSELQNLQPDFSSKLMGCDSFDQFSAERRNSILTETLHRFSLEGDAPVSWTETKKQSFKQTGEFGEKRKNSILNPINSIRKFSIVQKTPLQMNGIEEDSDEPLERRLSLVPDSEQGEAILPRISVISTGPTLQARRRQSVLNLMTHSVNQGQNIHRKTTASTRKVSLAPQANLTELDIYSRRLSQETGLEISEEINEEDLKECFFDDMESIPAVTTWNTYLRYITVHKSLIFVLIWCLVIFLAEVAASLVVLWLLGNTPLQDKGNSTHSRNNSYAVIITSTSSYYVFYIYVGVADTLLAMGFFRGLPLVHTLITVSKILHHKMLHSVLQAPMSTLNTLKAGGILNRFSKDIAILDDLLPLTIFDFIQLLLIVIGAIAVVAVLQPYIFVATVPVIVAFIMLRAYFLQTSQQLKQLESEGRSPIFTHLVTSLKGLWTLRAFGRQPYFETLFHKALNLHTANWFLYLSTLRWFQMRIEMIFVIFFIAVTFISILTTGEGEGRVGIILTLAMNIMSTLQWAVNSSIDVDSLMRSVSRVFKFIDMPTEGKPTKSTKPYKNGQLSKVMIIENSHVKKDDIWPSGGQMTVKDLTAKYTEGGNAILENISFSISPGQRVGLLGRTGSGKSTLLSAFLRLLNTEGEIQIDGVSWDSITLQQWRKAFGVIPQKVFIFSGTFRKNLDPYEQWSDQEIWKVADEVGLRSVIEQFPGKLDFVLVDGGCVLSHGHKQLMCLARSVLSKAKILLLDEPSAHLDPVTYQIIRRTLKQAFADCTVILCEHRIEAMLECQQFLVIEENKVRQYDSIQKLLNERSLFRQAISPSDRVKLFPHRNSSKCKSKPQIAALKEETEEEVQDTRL

By EC50 is commonly meant the concentration giving half of the maximal effect. For `O=C(Nc1ccccc1N1CCCCC1)c1c[nH]c2ccccc2c1=O` [Compound 26, 4-oxo-N-[2-(1-piperidyl)phenyl]-1H-quinoline-3-carboxamide], the EC50 is below 10 µM and the “% Activity” value was “++ (between 25% to 100%)”.

Take `COCCOC(=O)NCC(C)(C)c1ccc(NC(=O)c2c[nH]c3ccccc3c2=O)cc1` [Compound 28, [2-methyl-2-[4-[(4-oxo-1H-quinolin-3-yl)carbonylamino]phenyl]-propyl]aminoformic acid 2-methoxyethyl ester]: the concentration giving a half-maximal response (EC50) was in the range of 10 to 25 µM and the “% Activity” value was “++ (between 25% to 100%)”.

As to `CC(C)n1cc(C(=O)Nc2ccccc2)c(=O)c2ccccc21` [Compound 29, 1-isopropyl-4-oxo-N-phenyl-1H-quinoline-3-carboxamide], the EC50 fell in the range of 10 to 25 µM and the “% Activity” value is recorded as “++ (between 25% to 100%)”.

For `COC(=O)Nc1cc(NC(=O)c2c[nH]c3ccccc3c2=O)ccc1C(C)C` [Compound 30, [2-isopropyl-5-[(4-oxo-1H-quinolin-3-yl)carbonylamino]phenyl]aminoformic acid methyl ester], the 50% effective concentration (EC50) is below 10 µM and the “% Activity” value is “++ (between 25% to 100%)”.

In the case of `Cc1ccc(NC(=O)c2c[nH]c3ccccc3c2=O)cc1` [Compound 31, 4-oxo-N-(p-tolyl)-1H-quinoline-3-carboxamide], the EC50 is below 10 µM and the “% Activity” value was “++ (between 25% to 100%)”.

Turning to `O=C(Nc1cc2[nH]ccc2cc1Cl)c1c[nH]c2ccccc2c1=O` [Compound 32, N-(5-chloro-1H-indol-6-yl)-4-oxo-1H-quinoline-3-carboxamide], the EC50 was below 10 µM and the “% Activity” value is recorded as “++ (between 25% to 100%)”.

For `O=C(Nc1ccc2cc[nH]c2c1)c1c[nH]c2ccccc2c1=O` [Compound 33, N-(1H-indol-6-yl)-4-oxo-1H-quinoline-3-carboxamide], the EC50 is below 10 µM and the “% Activity” value is listed as “++ (between 25% to 100%)”.

As to `CCC(CC)(CC)c1cc(F)c(NC(=O)c2cnc3ccccc3c2O)cc1O` [Compound 34, N-[4-(1,1-diethylpropyl)-2-fluoro-5-hydroxy-phenyl]-4-hydroxy-quinoline-3-carboxamide], the EC50 was below 10 µM and the “% Activity” value was “++ (between 25% to 100%)”.

`CC1(C)CCCNc2cc(NC(=O)c3c[nH]c4ccccc4c3=O)ccc21` [Compound 35, 1,4-dihydro-N-(2,3,4,5-tetrahydro-5,5-dimethyl-1H-benzo[b]azepin-8-yl)-4-oxoquinoline-3-carboxamide]: the concentration giving a half-maximal response (EC50) is below 10 µM and the “% Activity” value was “++ (between 25% to 100%)”.

In the case of `CC(C)c1ccccc1NC(=O)c1c[nH]c2ccccc2c1=O` [Compound 36, N-(2-isopropylphenyl)-4-oxo-1H-quinoline-3-carboxamide], the EC50 is below 10 µM and the “% Activity” value is reported as “++ (between 25% to 100%)”.

As to `O=C(Nc1cccc2cc[nH]c12)c1c[nH]c2ccccc2c1=O` [Compound 37, N-(1H-indol-7-yl)-4-oxo-1H-quinoline-3-carboxamide], the EC50 was below 10 µM and the “% Activity” value was “++ (between 25% to 100%)”.

Regarding `O=C(Nc1ccccc1-c1cc2ccccc2[nH]1)c1c[nH]c2ccccc2c1=O` [Compound 38, N-[2-(1H-indol-2-yl)phenyl]-4-oxo-1H-quinoline-3-carboxamide], the half-maximal effective concentration (EC50) is below 10 µM and the “% Activity” value is “++ (between 25% to 100%)”.

With `COc1nc2ccccc2c(OC)c1C(=O)Nc1cc(NC(=O)OC(C)(C)C)ccc1C(C)(C)C` [Compound 39, [3-[(2,4-dimethoxy-3-quinolyl)carbonylamino]-4-tert-butyl-phenyl]aminoformic acid tert-butyl ester], the EC50 was in the range of 10 to 25 µM and the “% Activity” value is “++ (between 25% to 100%)”.

Turning to `O=C(Nc1ccccc1CCO)c1c[nH]c2ccccc2c1=O` [Compound 40, N-[2-(2-hydroxyethyl)phenyl]-4-oxo-1H-quinoline-3-carboxamide], the 50% effective concentration (EC50) fell in the range of 25 to 60 µM and the “% Activity” value was “+ (<25%)”.
